For three compounds, mortality, Time and FDI results are on record in ChEMBL document CHEMBL3045712, “Insect antifeedant and growth regulating activities of salannobutyrolactone and desacetylsalannobutyrolactone” (2005).

Common to all, as to type: functional
For experiment [1], the system named is Spodoptera litura. Nature of the experiment: Insecticidal activity against third-instar larval stage of Spodoptera litura fed on compound-treated castor leaves assessed as pupal mortality at 5 ug/cm2 (reference value: 4.17%).
In experiment [2] the test system is Spodoptera litura. Briefly: Insecticidal activity against third-instar larval stage of Spodoptera litura fed on compound-treated castor leaves assessed as pupal mortality at 10 ug/cm2 (reference value: 4.17%).
Experiment [3] has as its system Spodoptera litura. Nature of the experiment: Insecticidal activity against third-instar larval stage of Spodoptera litura fed on compound-treated castor leaves assessed as pupal duration time at 5 ug/cm2 (reference value: 8.1 +/- 0.14 days).
For experiment [4], the system named is Spodoptera litura. Nature of the experiment: Insecticidal activity against third-instar larval stage of Spodoptera litura fed on compound-treated castor leaves assessed as pupal duration time at 10 ug/cm2 (reference value: 8.1 +/- 0.14 days).
The test system of experiment [5] is Spodoptera litura. Briefly: Insecticidal activity against third-instar larval stage of Spodoptera litura fed on compound-treated castor leaves assessed as larval mortality at 10 ug/cm2 (reference value: 4%).
Experiment [6] relates to Spodoptera litura. Nature of the experiment: Insecticidal activity against third-instar larval stage of Spodoptera litura fed on compound-treated castor leaves assessed as total larval duration time at 5 ug/cm2 (reference value: 12.7 +/- 0.89 days).
In experiment [7] the test system is Spodoptera litura. Nature of the experiment: Insecticidal activity against third-instar larval stage of Spodoptera litura fed on compound-treated castor leaves assessed as total larval duration time at 10 ug/cm2 (reference value: 12.7 +/- 0.89 days).
Experiment [8] has as its system Spodoptera litura. Nature of the experiment: Antifeedant activity against third-instar larval stage of Spodoptera litura fed on compound-treated castor leaves assessed as feeding deterrence index at 5 ug/cm2 by dual choice leaf disc method.
Experiment [9] deals with Spodoptera litura. Nature of the experiment: Antifeedant activity against third-instar larval stage of Spodoptera litura fed on compound-treated castor leaves assessed as feeding deterrence index at 10 ug/cm2 by dual choice leaf disc method.
For experiment [10], the system named is Spodoptera litura. Briefly: Insecticidal activity against third-instar larval stage of Spodoptera litura fed on compound-treated castor leaves assessed as larval mortality at 5 ug/cm2 (reference value: 4%).

Structures are written as SMILES.

Take `C/C=C(\C)C(=O)O[C@H]1C[C@@H](OC(C)=O)[C@@]2(C(=O)OC)CO[C@H]3[C@@H](O)[C@@](C)([C@]45O[C@@]4(C)[C@@H]4C[C@H]5O[C@@H]5OC=C[C@@]54O)[C@H]4[C@]1(CO[C@]4(O)C(=O)OC)[C@@H]32` [AZADIRACHTIN A]: the mortality at 5 µg/cm2 in experiment [1] was determined as 33.2%. Also, the mortality at 10 µg/cm2 in experiment [2] turned out to be 40%; in [5], 64%. In addition, the Time in experiment [3] stood at 9.8 days; in experiment [4], 10.14 days; in [6], 15 days; in experiment [7], 16.3 days. The figures for the FDI in experiment [8] and in experiment [9] were 15.62% and 12.59%, respectively.
With `C/C=C(\C)C(=O)O[C@H]1C[C@@H](O)[C@@]2(C)CO[C@H]3[C@H]4O[C@@H]5C[C@@H](C6=CCOC6=O)C(C)=C5[C@@]4(C)[C@H](CC(=O)OC)[C@]1(C)[C@@H]32` [DESACETYLSALANNOBUTYROLACTONE], the results for the mortality at 5 µg/cm2 in experiment [1] and in [10] were 27.3% and 24%, respectively. Further, the mortality at 10 µg/cm2 in experiment [2] turned out to be 33.3%; in experiment [5] it was 40%. The Time in experiment [3] is 8.41 days; in experiment [4] it was 8.6 days; in experiment [6], 13.1 days; in experiment [7], 14.4 days. In addition, the FDI in experiment [8] turned out to be 50.45%; in experiment [9], 47.97%.
With `C/C=C(\C)C(=O)O[C@H]1C[C@@H](OC(C)=O)[C@@]2(C)CO[C@H]3[C@H]4O[C@@H]5C[C@@H](C6=CCOC6=O)C(C)=C5[C@@]4(C)[C@H](CC(=O)OC)[C@]1(C)[C@@H]32` [SALANNOBUTYROLACTONE], the mortality at 5 µg/cm2 in experiment [1] was determined as 30.2%; in experiment [10], 32%. The mortality at 10 µg/cm2 was determined as 37.2% in experiment [2] and 52% in [5]. Besides, the Time in experiment [3] was determined as 8.7 days; in experiment [4] it was 9.4 days; in [6], 14 days; in experiment [7] it was 15.5 days. For the same compound, the FDI in [8] turned out to be 39.34%; in [9] it was 36.69%.

What is called mortality is the percentage killed.
